From patent US10940139B2, “Compounds that interact with the Ras superfamily for the treatment of cancers, inflammatory diseases, rasopathies, and fibrotic disease” (Shy Therapeutics LLC, priority 2017, dated 2021)

How the values were obtained:
Rac-1 = Rac-1 (Homo sapiens (Human), UniProt P63000); assay: Rac inhibition assay (labeled GTP); format: binding; conditions: read-out: Rac-1 % Inh.
[1] = target: KRas G12D/Q61H double mutant (Homo sapiens (Human), UniProt P01116, G12D/Q61H); assay: Ras GTP binding domain inhibition assay (labeled GTP); conditions: at 20 μM; read-out: KRas G12D Q61H % Inh.
Sequence of KRas G12D/Q61H double mutant (P01116-2 other isoform, or with tags, fused parts or gaps G12D/Q61H): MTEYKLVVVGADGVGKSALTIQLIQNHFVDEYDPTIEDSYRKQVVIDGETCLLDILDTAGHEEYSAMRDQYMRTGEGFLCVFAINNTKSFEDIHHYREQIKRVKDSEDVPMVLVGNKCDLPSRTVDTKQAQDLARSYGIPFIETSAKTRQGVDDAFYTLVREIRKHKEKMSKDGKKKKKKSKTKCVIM
Summary of the method: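 Inhibition of labeled GTP binding is measured on immobilized His-KRas protein in Tris buffer pH 7.5 with 1 mM MgCl2 and 1 mM DTT.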

Rho-A = Rho-A (Homo sapiens (Human), UniProt P61586); assay: Rho inhibition assay (labeled GTP); format: binding; conditions: read-out: Rho-A % Inh.
Sequence of Rho-A (P61586 whole entry): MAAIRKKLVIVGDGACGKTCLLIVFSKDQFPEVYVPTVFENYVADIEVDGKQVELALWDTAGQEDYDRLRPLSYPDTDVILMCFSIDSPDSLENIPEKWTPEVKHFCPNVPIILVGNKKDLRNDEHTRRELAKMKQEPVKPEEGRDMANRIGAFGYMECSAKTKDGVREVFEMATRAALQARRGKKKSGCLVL

Row | inhibition at 20 µM (Rac-1) [%] | inhibition at 20 µM [1] [%] | inhibition at 20 µM (Rho-A) [%] | SMILES
1 | 76 to 100 | 25 to 50 | 76 to 100 | O=C(c1csc2c(O)nc(-c3ccccn3)nc12)N1CCNC(c2ccccc2F)C1 (stereo not drawn) [drawing 3665]
2 | 25 to 50 | 1 to 25 | 25 to 50 | Oc1nc(-c2ccccn2)nc2c(-c3ccnn3-c3ccccn3)csc12 [drawing 3776]
3 | 51 to 75 | 25 to 50 | 25 to 50 | Oc1nc(-c2ccccn2)nc2c(-c3ccc(CN4CCOCC4)cc3)csc12 [drawing 3754]
4 | 1 to 25 | 0 | 25 to 50 | Cn1cnc(-c2nc(O)c3sc(-c4ccncc4)c(-c4ccccc4)c3n2)c1 [drawing 3867]
5 | 51 to 75 | 51 to 75 | 51 to 75 | Oc1nc(-c2ccccn2)nc2c(-c3ccc(C4CCC4)cc3)csc12 [drawing 3737]
6 | 1 to 25 | 1 to 25 | 1 to 25 | COc1cnc(CNC(=O)c2csc3c(O)nc(-c4ccccn4)nc23)[nH]c1=O [drawing 3838]
7 | 1 to 25 | 0 | 0 | Nc1nc(O)c2sc(-c3cccc(C(=O)NCc4cccc(O)n4)c3)cc2n1 [drawing 3864]
8 | 76 to 100 | 1 to 25 | 76 to 100 | CC(C(=O)Nc1nc(-c2ccccn2)nc2sccc12)c1ccc(C#N)cc1 (stereo not drawn) [drawing 3687]
9 | 76 to 100 | 0 | 51 to 75 | Oc1nc(-c2ccccn2)nc2c(-c3ccccc3)c(-c3ccncc3)sc12 [drawing 3866]
10 | 76 to 100 | 51 to 75 | 76 to 100 | O=C(c1cc2nc(-c3ccccn3)nc(O)c2s1)N1CCOC(c2ccccc2)C1 (stereo not drawn) [drawing 3714]
11 | 51 to 75 | 51 to 75 | 51 to 75 | Cc1ccc(OC2CCCC2)c(-c2csc3c(O)nc(-c4ccccn4)nc23)c1 [drawing 3716]
12 | 25 to 50 | 1 to 25 | 25 to 50 | Nc1nc(-c2ccccn2)nc2c(-c3ccccc3Cl)csc12 [drawing 3707]
13 | 1 to 25 | 25 to 50 | 25 to 50 | Oc1nc(-c2ccccn2)nc2cc(-c3cccc(Br)c3)sc12 [drawing 3882]
14 | 51 to 75 | 51 to 75 | 76 to 100 | COC(=O)c1cc2nc(-c3ccccn3)nc(O)c2s1 [drawing 3779]
15 | 76 to 100 | 51 to 75 | 76 to 100 | Cc1c(-c2csc3c(O)nc(-c4ccccn4)nc23)cnn1C [drawing 3824]
16 | 51 to 75 | 25 to 50 | 51 to 75 | COc1cnc(CNC(=O)c2cc3nc(-c4ccccn4)nc(O)c3s2)[nH]c1=O [drawing 3839]
17 | 51 to 75 | 25 to 50 | 51 to 75 | Oc1nc(-c2ccccn2)nc2c(-c3ccccc3)csc12 [drawing 3625]
18 | 1 to 25 | 1 to 25 | 1 to 25 | Nc1nc(O)c2sc(-c3cccc(C(=O)NC4CCNC4=O)c3)cc2n1 (stereo not drawn) [drawing 3860]

Row | inhibition at 20 µM (Rac-1) [%] | inhibition at 20 µM [1] [%] | inhibition at 20 µM (Rho-A) [%] | SMILES
19 | 51 to 75 | 1 to 25 | 51 to 75 | O=C(NCCc1ccnc(O)n1)c1csc2nc(-c3ccccn3)nc(N3CCOCC3)c12 [drawing 3770]
20 | 25 to 50 | 1 to 25 | 25 to 50 | COCC(C)Nc1nc(-c2ccccn2)nc(C(=O)NCCCc2c[nH]cn2)c1Oc1ccccc1 (stereo not drawn) [drawing 3868]
21 | 51 to 75 | 0 | 51 to 75 | O=C(c1csc2c(O)nc(-c3ccccn3)nc12)N1CCN(c2ccc(F)cc2)CC1 [drawing 3643]
22 | 0 | 1 to 25 | 25 to 50 | Cc1ccc(-c2csc3c(O)nc(-c4ccccn4)nc23)cc1 [drawing 3878]
23 | 76 to 100 | 0 | 51 to 75 | CC(C)(C(=O)Nc1nc(-c2ccccn2)nc2sccc12)c1ccc(C#N)cc1 [drawing 3641]
24 | 51 to 75 | 25 to 50 | 51 to 75 | COc1ccnc(-c2nc(O)c3c(C(F)(F)F)csc3n2)c1 [drawing 3705]
25 | 25 to 50 | 25 to 50 | 51 to 75 | Cc1sc2c(O)nc(-c3ccccn3)nc2c1Br [drawing 3840]
26 | 51 to 75 | 1 to 25 | 25 to 50 | O=C(c1csc2c(O)nc(-c3ccccn3)nc12)N1CCN(Cc2ccc(O)cc2)CC1 [drawing 3653]
27 | 0 | 1 to 25 | 1 to 25 | COc1ccc(-c2cc3nc(-c4ccccn4)nc(O)c3s2)cc1 [drawing 3881]
28 | 51 to 75 | 1 to 25 | 51 to 75 | COc1ncc(CCNC(=O)c2csc3nc(-c4ccccn4)nc(N4CCOCC4)c23)cn1 [drawing 3637]
29 | 25 to 50 | 1 to 25 | 25 to 50 | Cn1cnc(-c2nc(O)c3c(-c4ccccc4)c(-c4ccc(CNC(=O)OC(C)(C)C)cc4)sc3n2)c1 [drawing 3855]
30 | 51 to 75 | 51 to 75 | 51 to 75 | Oc1nc(-c2ccccn2)nc2c(-c3ccccc3OC3CCCCC3)csc12 [drawing 3738]
31 | 51 to 75 | 1 to 25 | 51 to 75 | COc1ccc2c(c1)CCC2C(=O)Nc1ccnc(-c2ccccn2)n1 (stereo not drawn) [drawing 3684]
32 | 0 | 1 to 25 | 1 to 25 | Oc1nc(-c2ccccn2)nc2cc(-c3ccc(-c4ccccc4)cc3)sc12 [drawing 3877]
33 | 51 to 75 | 25 to 50 | 25 to 50 | Cc1cncc(-c2csc3c(O)nc(-c4ccccn4)nc23)c1 [drawing 3785]
34 | 76 to 100 | 51 to 75 | 76 to 100 | COc1nc(-c2ccccn2)nc2c(C3CCC3)csc12 [drawing 3799]
35 | 25 to 50 | 1 to 25 | 25 to 50 | OCC1(c2ccc(-c3nc(-c4ccccn4)nc(-c4ccc(C5(CO)CC5)cc4)c3Oc3ccccc3)cc2)CC1 [drawing 3850]
36 | 51 to 75 | 1 to 25 | 25 to 50 | O=C(NCCc1cncs1)c1csc2nc(-c3ccccn3)nc(N3CCOCC3)c12 [drawing 3638]

Row | SMILES | inhibition at 20 µM (Rac-1) [%] | inhibition at 20 µM [1] [%] | inhibition at 20 µM (Rho-A) [%]
37 | COc1cnc(C(C)(C)N)nc1O [drawing 3810] | 1 to 25 | 1 to 25 | 0
38 | Oc1nc(-c2ccccn2)nc2c3c(sc12)CNC3 [drawing 3796] | 76 to 100 | 51 to 75 | 76 to 100
39 | COc1cnc(C2(N)CCCC2)nc1O [drawing 3809] | 1 to 25 | 1 to 25 | 1 to 25
40 | CC(c1ccccc1)N1CCN(C(=O)c2csc3c(O)nc(-c4ccccn4)nc23)CC1 (stereo not drawn) [drawing 3693] | 76 to 100 | 51 to 75 | 76 to 100
